In patent publication US20080039522A1, “Composition Containing a Complex Comprising a Metal Ion and a Carboxylate Ligand Having Anti-Inflammatory Activity” (Medical Therapies Limited, priority 2004, published 2008):

Key:
[1] = EPR spectroscopic determination of Cu(II) monomer / dissociation of the complex in formulations; assay type: physicochemical; settings: percentage of the total amount of Cu in the composition; X-band EPR, 4 K
Method: The synthesis of [Cu2(Indo)4(OH2)2] may result in a product containing a small amount of monomer (typically 5% or less), and this monomer may or may not contain Indo Thus a composition containing [Cu2(Indo)4(OH2)2] may or may not contain a small amount of a Cu(II) monomer containing Indo.
The relative amounts of the Cu(II) monomer in samples of various compositions containing the complex [Cu2(Indo)4(OH2)2] were determined as described below. […]
EPR Spectroscopy. Low temperature (4-110 K) X-band EPR spectra of the compositions containing [Cu2(Indo)4(OH2)2] were measured at X-band frequencies (˜9.5 GHz) using a Bruker EMX EPR spectrometer equipped with a standard ER4120 X band cavity, EMX 035M NMR gaussmeter, EMX 032T field controller, EMX 081 magnet power supply, Bruker EMX 048T microwave bridge control and BVT2000 variable temperature unit and Oxford Instruments E900 continuous flow cryostat (for low temperature data collection). Low temperature X-band EPR Cu(II) spectra of samples of [Cu2(Indo)4(OH2)2] containing less than 0.47 mM Cu(II) were measured using a Bruker ESP 300 spectrometer equipped with a Hewlett Packard 5352B microwave frequency counter, Bruker ER 085C magnet power supply, Bruker ER 032 magnet field control, Bruker ER 023M signal channel and Bruker ESP 1600-1048 microwave bridge controller. […]

Sprague-Dawley rats [2] = experiment: Acute gastric ulceration after oral administration; assay type: in vivo, rat; settings: rat, in vivo
Method: Gastrointestinal Ulceration: To assess gastric damage, rats (n=4 per group) were fasted overnight with free access to water prior to the oral administration (non-anaesthetized) of the Test Samples or Test Compositions via oral gavage. The controls were dosed with CMC (2%) solution. Three hours after dosing, the rats were euthanised and the stomach was excised and opened by incision along the greater curvature. The stomach was rinsed, submerged in 10% formaldehyde for 1 h and examined to determine the extent of macroscopic gastric damage.
(§1) The total volume of the MCT or carbopol paste compositions administered per dose in the assessment of gastrointestinal ulceration was no more than 0.5 g.
In order to illustrate the adverse effects of decomposition of the copper complex in the formulation, the gastric toxicity of IndoH, Cu-acetate, a physical mixture of Cu-acetate and IndoH and [Cu2(Indo)4(DMF)2] were tested at equivalent doses of Indo (10 mg kg^−1) and/or Cu in the MCT paste or a 2% (w/v) aqueous solution of carboxymethylcellulose (CMC). The MCT paste formulations were prepared as described in Example 3 but using IndoH, Cu-acetate, a physical mixture of Cu-acetate and IndoH, or [Cu2(Indo)4(DMF)2] instead of [Cu2(Indo)4(OH2)2]. The gastric toxicity was tested as described above. The results of these experiments are illustrated in FIG. 3.
In further experiments designed to test the toxicity of solutions of the Cu complex, the [Cu2(Indo)4(DMF)2] complex was dissolved in DMF and gastric toxicities were assessed. […] Similar results would be expected using other complexes, including [Cu2(Indo)4(OH2)2], in a non-colloidal solution.

Sprague-Dawley rats [3] = experiment: Small intestine ulceration after oral administration; assay type: in vivo, rat; settings: rats fed, oral gavage, 24 h after dosing; IndoH 10 mg kg^−1, complexes 11 mg kg^−1; mean ± sem; listed as Sample F
Method: The rats were orally administered (non-anaesthetized) the Test Samples or Test Compositions via oral gavage. The controls were dosed with CMC (2%) solution.
as §1

Sprague-Dawley rats [4] = experiment: Anti-inflammatory activity (rat paw oedema) of topical creams; assay type: in vivo; settings: topical emulsifying cream
Method: All rat experiments were performed as outlined in Example 7, except for the following changes. In Vivo Anti-inflammatory Activity and Gastric Toxicity. For topical administration, rats were treated with test compositions containing [Cu2(Indo)4(OH2)2] (“CuIndo”), [Zn(Indo)2(OH2)2] (“ZnIndo”), IndoH, or an equivalent Indo and Cu dose of a physical mixture of [Cu2(OAc)4(OH2)2] and IndoH thoroughly mixed in an emulsifying cream (see below). An amount of 0.2 g of the composition was applied to the right hind paw of each animal and gently massaged in for 1 minute at three-hourly intervals. Inflammation was induced at the final topical application with an injection of carrageenan (0.1 mL, 1% w/v in isotonic saline) into the plantar region of the hind paw. The composition for topical application was a composition comprising 0.5-2% w/w of Indo delivered as [Cu2(Indo)4(OH2)2] (“CuIndo”), [Zn(Indo)2(OH2)2] (“ZuIndo”), IndoH or an equivalent Indo and Cu dose of a physical mixture of [Cu2(OAc)4(OH2)2] and IndoH in an emulsifying cream, the emulsifying cream consisting of: […]

## COc1ccc2c(c1)c(CC(=O)[O-])c(C)n2C(=O)c1ccc(Cl)cc1.COc1ccc2c(c1)c(CC(=O)[O-])c(C)n2C(=O)c1ccc(Cl)cc1.COc1ccc2c(c1)c(CC(=O)[O-])c(C)n2C(=O)c1ccc(Cl)cc1.COc1ccc2c(c1)c(CC(=O)[O-])c(C)n2C(=O)c1ccc(Cl)cc1.O.O.[Cu+2].[Cu+2] [[Cu2(Indo)4(OH2)2]]
[1]
  Cu(II) monomer (%): ^aThe technique is not applicable to dry powders, however, solid-state [Cu2(Indo)4L2] (L = OH2) contains <1% Cu(II) monomer fraction.
Sprague-Dawley rats [2]
  gastric toxicity as % of that of an equivalent dose of IndoH: approximately 8%
  reduction of gastric toxicity versus free IndoH: 50%
Sprague-Dawley rats [3]
  Small intestine ulceration (mm^2): 61.0±34.5 mm^2
Sprague-Dawley rats [4]; conc. 0.5 % equiv of Indo
  Efficacy (% inhib): 12.2 % inhib
Sprague-Dawley rats [4]; conc. 0.75 % equiv of Indo
  Efficacy (% inhib): 73 % inhib
Sprague-Dawley rats [4]; conc. 1 % equiv of Indo
  Efficacy (% inhib): 52 % inhib
Sprague-Dawley rats [4]; conc. 2 % equiv of Indo
  Efficacy (% inhib): 55.2 % inhib
